In patent US20040132969A1, “Antibodies, peptides, analogs and uses thereof” (priority 2000, published 2004):
Entries after “also recorded” stand apart in the source; their conditions may differ. Where no end group is shown, it is not given here.

B1: fibrin fragment E: fibrin fragment E (55 kD), used digoxygenin labelled in binding experiments (protein)
chain 1: GPRVVERHQSACKDSDWPFCSDEDWNYKCPSGCRMKGLIDEVNQDFTNRINKLKNSLFEYQK
chain 2: GHRPLDKKREEAPSLRPAPPPISGGGYRARPAKAAATQKKVERKAPDAGGCLHADPDLGVLCPTGCQLQEALLQQERPIRNSVDELNNNVEAVSQTSSSSFQYMYLLK
chain 3: YVATRDNCCILDERFGSYCPTTCGIADFLSTYQTKVDKDLQSLEDILHQVENKTSEVKQLIK

Experiments:
HUVEC and fibroblasts [1] = assay: Neutral Red cell metabolism cytotoxicity assay; assay type: cell-based, human; conditions: for cytotoxicity / cell viability, Neutral Red assay: HUVEC and fibroblast monocultures, 72 hours
Protocol: (§1) In order to determine whether the fibrin E analogue peptides WTM33, WTM34, WTM35, WTM36, and WTM37 are cytotoxic when applied to the HUVEC and fibroblasts used in the Angiosys™ angiogenesis assay, these reagents were examined in two different cytotoxicity assays. To simplify performance of these assays and discriminate between fibroblasts and HUVEC, cells were grown in monocultures rather than together and then treated with the experimental reagents as described below.
A Neutral Red cell metabolism assay was used to determine the cytotoxicity to HUVEC and fibroblasts of the fibrin E analogue peptides. This assay works on the basis of colorimetric measurement of a red dye which, is reported to be taken up into the lysosomes of uninjured cells. Thus the stronger the colour signal obtained from a well of cells, the greater the percentage of cells remaining viable within that well. HUVEC cells were inoculated into wells of 96 wells at a density of 5×10^3 cells per well, in endothelial cell culture medium. Fibroblasts were similarly seeded 5×10^3 cells per well. The cells were incubated for 24 hours under standard conditions to permit adherence and growth, and then treated for 72 hours with fresh medium containing fibrin E peptides over the same range of concentrations used in the Angiosys™ angiogenesis assay. For each concentration of each of the six peptides, four replicate wells of each cell type were treated and then assayed. Following incubation with the test compounds, the medium was removed and replaced with 200 μl per well of fresh medium containing 3.57 mg neutral red per 100 ml. The cells were incubated with this neutral red solution for 3 hours, after which this solution was decanted and replaced with 100 μl 1% formaldehyde/1% CaCl2. This was rapidly decanted and replaced in turn with 200 μl 50% ethanol/1% acetic acid, which was incubated at room temperature for 30 minutes to extract the neutral red from the cells. The plates were then read in a 96 well plate-format spectrophotometer, measuring absorbance at 540 nm. Mean absorbance values from each group of four wells were calculated and expressed as a percentage±standard deviation of the mean value obtained from control wells incubated in the absence of fibrin E analogue peptide.

HUVEC and fibroblasts [2] = assay: BrdU ELISA cell proliferation cytotoxicity assay; assay type: cell-based, human; conditions: for cytotoxicity / cell proliferation, BrdU assay: HUVEC and fibroblast monocultures, 24 hours
Protocol: as §1
Cytotoxicity of the fibrin E peptide analogues was also determined by examining cell proliferation, using a commercial BrdU ELISA (Roche Molecular Biochemicals) performed according to the manufacturer's instructions. This assay quantifies DNA synthesis as a measure of cellular proliferation, as stimulation or inhibition of cell replication will require a concomitant change in the rate of DNA synthesis. Measurement of DNA synthesis is achieved by incubating proliferating cells in medium in which thymidine has been replaced with the pyrimidine analogue 5-bromo-2′-deoxyuridine (BrdU). Once incorporated into the cellular DNA, BrdU is measured by immunoassay. Briefly, HUVEC and fibroblasts were seeded as monocultures into 96 well plates at a density of 5×10^3 cells per well, to a final volume of 100 μl per well in endothelial cell culture medium. At the end of an initial culture period of 72 hours under standard conditions, while the cells were still proliferating, fibrin E analogue peptides were added to a range of final concentrations, as shown in the FIG. 8. Each treatment concentration of each peptide was administered to four replicate wells. Control cells received standard medium without test compounds. The cells were incubated for 24 hours with the test compounds, before 10 μl of stock BrdU solution (100 μM) was added to give a final concentration of 10 μM BrdU, and the cells were incubated for a further 2 hours. The test medium was then removed from the cells and replaced with 200 μl per well of Fixing/Denaturing solution, which was incubated on the cells for a further 30 minutes at room temperature. This was then replaced with 100 μl per well anti-BrdU-POD (mouse monoclonal clone BMG 6H8, Fab fragments conjugated to peroxidase) prepared as directed, which was left on the cells for a further 90 minutes at room temperature. The antibody conjugate was then removed from the wells by rinsing three times in 200 μl per well of washing buffer (PBS) before 100 μl well substrate solution (tetramethyl-benzidine) was added and incubated at room temperature until colour development was sufficient for photometric detection (approximately 15 minutes). Absorbance at 370 nm was measured on a multi-well plate ELISA plate reader (Dynatech), with a reference wavelength of 492 nm. Mean absorbance values from each group of four wells were calculated and expressed as a percentage±standard deviation of the mean value obtained from control wells incubated in the absence of fibrin E analogue peptide.

Chick fibroblasts = assay: Cell immunohistochemistry; assay type: binding; conditions: 8 mg per ml; 2 hours
Protocol: Chick fibroblasts were cultured in a 25 cm^2 flask (Nunc) until confluent (approximately 3×10^6 cells). The cells were washed in PBS and then trypsinised and diluted to 3×10^5 cells per ml in Dulbecco modified medium with 10% foetal calf serum. […] of the cells suspension was plated into each well of a Nunc culture well slide. The cells were incubated overnight to allow adhesion and recovery from the passaging. Digoxygenin labelled fibrin fragment E was added to a final concentration of 8 mg per ml. Control wells contained unconjugated digoxygenin and PBS.
The cells were rinsed after 2 hours with PBS then washed 3 times in TBS followed by one wash in distilled water. The cells were then incubated for 2 hours with sheep anti-digoxygenin alkaline phosphatase. The slides were then washed three times in TBS and developed with NBT and BCIP in bicarbonate buffer pH 9.8. The slides were air dried and then mounted for observation of membrane staining under the microscope.

[3] = system: Chick fibroblasts, Cos7, mouse 3T3 and human embryonic lung cells (HEL); assay: Cell binding assays (absorbance at 405 nm); conditions: 0-30 mg per well; 6 hours; each of the cell types
Protocol: Chick fibroblasts, Cos7, mouse 3T3 and human embryonic lung cells (HEL) were cultured in a 25 cm^2 flask (Nunc) until confluent (approximately 3×10^6 cells). The cells were trypsinised and resuspended at concentration of 1.3×10^5 cells/ml. 200 μl of this cell suspension was added to each well of a 96 well culture plate (Nunc). The cells were incubated overnight at 37° C. to allow adherence and recovery. The cells were then divided into three sections, digoxygenin controls, PBS controls and digoxygenin labelled fragment E tests. Increasing concentrations of digoxygenin and digoxygenin labelled fibrin fragment E were applied from 0-30 mg per well. The plates were incubated for 6 hours at 37° C. under culture conditions.
The plates were emptied of media and washed three times with PBS. The cells were then incubated for 2 hours with sheep antidigoxygenin alkaline phosphatase and developed with p-nitrophenyl phosphate in bicarbonate buffer pH 9.8. The plates were read on a Titertek Multiscan plate reader at 405 nm.

Molecule | cytotoxicity / cell survival, Neutral Red assay (HUVEC and fibroblasts [1]; 3, 12, 100 μg/ml) | cytotoxicity / cell viability, Neutral Red assay (HUVEC and fibroblasts [1]) | cytotoxicity / cell survival, BrdU assay (HUVEC and fibroblasts [2]; 3, 12, 100 μg/ml) | cytotoxicity / cell proliferation, BrdU assay (HUVEC and fibroblasts [2]) | cell proliferation, BrdU assay (HUVEC and fibroblasts [2]; higher concentrations) | binding to cells (membrane staining) (Chick fibroblasts) | binding to cells (absorbance at 405 nm compared to controls) [3]
SLRPAPPPISGGGYR [WTM33, SLRPAPPPISGGGYR] | no effect on survival of either cell type | not cytotoxic | no effect on survival of either cell type | not cytotoxic |  |  | 
QLQEALLQQERPIRN [WTM35, QLQEALLQQERPIRN] |  | not cytotoxic; also recorded: no toxicity |  | not cytotoxic; also recorded: no toxicity |  |  | 
SSSSFQYMYLL [WTM37, SSSSFQYMYLL] |  | no toxicity to either cell type |  | no toxicity to either cell type |  |  | 
SVDELNNNVEAVSQT [WTM36, SVDELNNNVEAVSQT] |  | not cytotoxic; also recorded: no reduction in the viability of the cells |  | not cytotoxic; also recorded: exhibited an effect on the cell proliferation | potential for reduction in cell proliferation |  | 
B1 |  |  |  |  |  | shown to bind | high absorbance
